Tests used:
Experiment in all cases: relative viability (nuclei count vs DMSO), 5 days (fraction); higher = more cells survive
[1] = system: NCI-H1993
In short: (§1)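 Relative viability is defined as nuclei in treated wells over nuclei in vehicle wells. Duplicate plates were run and medians reported. Lung cancer cell lines in 1536-well plates were dosed by pin tool one day after seeding, with one drug or with a fixed anchor-drug dose plus five library-drug doses (not always all listed) in √10 steps, and nuclei were counted after 5 days.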

[2] = system: NCI-H1734
In short: as §1

[3] = system: HCC-827
In short: as §1

[4] = system: BEN
In short: as §1

[5] = system: HCC-366
In short: as §1

[6] = system: NCI-H2009
In short: as §1

[7] = system: SK-MES-1
In short: as §1

[8] = system: NCI-H2405
In short: as §1

[9] = system: LOU-NH91
In short: as §1

[10] = system: HARA
In short: as §1

[11] = system: NCI-H2087
In short: as §1

[12] = system: NCI-H1355
In short: as §1

[13] = system: NCI-H2170
In short: as §1

[14] = system: SK-LU-1
In short: as §1

[15] = system: NCI-H661
In short: as §1

[16] = system: NCI-H1395
In short: as §1

[17] = system: NCI-H2342
In short: as §1

[18] = system: NCI-H647
In short: as §1

[19] = system: NCI-H1792
In short: as §1

[20] = system: EKVX
In short: as §1

[21] = system: NCI-H1437
In short: as §1

[22] = system: NCI-H522
In short: as §1

COc1nc(C)cnc1NS(=O)(=O)c1cccnc1-c1ccc(-c2nnco2)cc1 [Zibotentan] + COc1cccc2cc(-c3nc([C@H]4CC[C@H](C(=O)O)CC4)n4ncnc(N)c34)[nH]c12 [OSI-027] (partner 0.5 µM)
relative viability ([1]; first compound 0.08 µM): 0.522 | relative viability ([1]; first compound 0.253 µM): 0.494 | relative viability ([1]; first compound 0.8 µM): 0.468 | relative viability ([1]; first compound 2.53 µM): 0.525 | relative viability ([2]; first compound 0.08 µM): 0.655 | relative viability ([2]; first compound 0.253 µM): 0.558 | relative viability ([2]; first compound 0.8 µM): 0.604 | relative viability ([2]; first compound 2.53 µM): 0.668 | relative viability ([3]; first compound 0.08 µM): 0.826 | relative viability ([3]; first compound 0.253 µM): 0.836 | relative viability ([3]; first compound 0.8 µM): 0.754 | relative viability ([3]; first compound 2.53 µM): 0.767 | relative viability ([4]; first compound 0.08 µM): 0.301 | relative viability ([4]; first compound 0.253 µM): 0.286 | relative viability ([4]; first compound 0.8 µM): 0.27 | relative viability ([4]; first compound 2.53 µM): 0.261 | relative viability ([5]; first compound 0.08 µM): 0.922 | relative viability ([5]; first compound 0.253 µM): 0.884 | relative viability ([5]; first compound 0.8 µM): 0.389 | relative viability ([5]; first compound 2.53 µM): 1.1 | relative viability ([6]; first compound 0.08 µM): 0.677 | relative viability ([6]; first compound 0.253 µM): 0.632 | relative viability ([6]; first compound 0.8 µM): 0.711 | relative viability ([6]; first compound 2.53 µM): 0.754 | relative viability ([7]; first compound 0.08 µM): 0.595 | relative viability ([7]; first compound 0.253 µM): 0.228 | relative viability ([7]; first compound 0.8 µM): 0.555 | relative viability ([7]; first compound 2.53 µM): 0.702 | relative viability ([8]; first compound 0.08 µM): 0.694 | relative viability ([8]; first compound 0.253 µM): 0.657 | relative viability ([8]; first compound 0.8 µM): 0.663 | relative viability ([8]; first compound 2.53 µM): 0.627 | relative viability ([9]; first compound 0.08 µM): 0.673 | relative viability ([9]; first compound 0.253 µM): 0.681 | relative viability ([9]; first compound 0.8 µM): 0.732 | relative viability ([9]; first compound 2.53 µM): 0.784 | relative viability ([10]; first compound 0.08 µM): 0.42 | relative viability ([10]; first compound 0.253 µM): 0.462 | relative viability ([10]; first compound 0.8 µM): 0.437 | relative viability ([10]; first compound 2.53 µM): 0.715 | relative viability ([11]; first compound 0.08 µM): 0.506 | relative viability ([11]; first compound 0.253 µM): 0.506 | relative viability ([11]; first compound 0.8 µM): 0.613 | relative viability ([11]; first compound 2.53 µM): 0.632 | relative viability ([12]; first compound 0.08 µM): 0.375 | relative viability ([12]; first compound 0.253 µM): 0.377 | relative viability ([12]; first compound 0.8 µM): 0.458 | relative viability ([12]; first compound 2.53 µM): 0.492 | relative viability ([13]; first compound 0.08 µM): 0.702 | relative viability ([13]; first compound 0.253 µM): 0.761 | relative viability ([13]; first compound 0.8 µM): 0.64 | relative viability ([13]; first compound 2.53 µM): 0.791 | relative viability ([14]; first compound 0.08 µM): 0.38 | relative viability ([14]; first compound 0.253 µM): 0.31 | relative viability ([14]; first compound 0.8 µM): 0.344 | relative viability ([14]; first compound 2.53 µM): 0.325 | relative viability ([15]; first compound 0.08 µM): 0.801 | relative viability ([15]; first compound 0.253 µM): 0.671 | relative viability ([15]; first compound 0.8 µM): 0.705 | relative viability ([15]; first compound 2.53 µM): 0.756 | relative viability ([16]; first compound 0.08 µM): 0.727 | relative viability ([16]; first compound 0.253 µM): 0.633 | relative viability ([16]; first compound 0.8 µM): 0.577 | relative viability ([16]; first compound 2.53 µM): 0.7 | relative viability ([17]; first compound 0.08 µM): 0.621 | relative viability ([17]; first compound 0.253 µM): 0.559 | relative viability ([17]; first compound 0.8 µM): 0.576 | relative viability ([17]; first compound 2.53 µM): 0.758 | relative viability ([18]; first compound 0.08 µM): 0.665 | relative viability ([18]; first compound 0.253 µM): 0.584 | relative viability ([18]; first compound 0.8 µM): 0.755 | relative viability ([18]; first compound 2.53 µM): 0.725 | relative viability ([19]; first compound 0.08 µM): 0.803 | relative viability ([19]; first compound 0.253 µM): 0.583 | relative viability ([19]; first compound 0.8 µM): 0.563 | relative viability ([19]; first compound 2.53 µM): 0.751 | relative viability ([20]; first compound 0.08 µM): 0.715 | relative viability ([20]; first compound 0.253 µM): 0.706 | relative viability ([20]; first compound 0.8 µM): 0.695 | relative viability ([20]; first compound 2.53 µM): 0.77 | relative viability ([21]; first compound 0.08 µM): 0.845 | relative viability ([21]; first compound 0.253 µM): 0.84 | relative viability ([21]; first compound 0.8 µM): 0.855 | relative viability ([21]; first compound 2.53 µM): 0.919 | relative viability ([22]; first compound 0.08 µM): 0.704 | relative viability ([22]; first compound 0.253 µM): 0.717 | relative viability ([22]; first compound 0.8 µM): 0.684 | relative viability ([22]; first compound 2.53 µM): 0.835
